Data: paper PMC5064002, “Sintokamide A Is a Novel Antagonist of Androgen Receptor That Uniquely Binds Activation Function-1 in Its Amino-terminal Domain” (The Journal of Biological Chemistry, 2016)

What was measured:
[1] = target: T1, AR interaction with STAT3 (Homo sapiens, UniProt P10275, T878A); assay: Co-immunoprecipitation of AR with STAT3 in LNCaP cells; format: cell-based; settings: EPI-002 35 μM or SINT1 20 μM, 50 ng/ml IL-6 6 h
T1 construct: endogenous in cells; host or cells: LNCaP
T1 sequence (P10275 1-920 T878A): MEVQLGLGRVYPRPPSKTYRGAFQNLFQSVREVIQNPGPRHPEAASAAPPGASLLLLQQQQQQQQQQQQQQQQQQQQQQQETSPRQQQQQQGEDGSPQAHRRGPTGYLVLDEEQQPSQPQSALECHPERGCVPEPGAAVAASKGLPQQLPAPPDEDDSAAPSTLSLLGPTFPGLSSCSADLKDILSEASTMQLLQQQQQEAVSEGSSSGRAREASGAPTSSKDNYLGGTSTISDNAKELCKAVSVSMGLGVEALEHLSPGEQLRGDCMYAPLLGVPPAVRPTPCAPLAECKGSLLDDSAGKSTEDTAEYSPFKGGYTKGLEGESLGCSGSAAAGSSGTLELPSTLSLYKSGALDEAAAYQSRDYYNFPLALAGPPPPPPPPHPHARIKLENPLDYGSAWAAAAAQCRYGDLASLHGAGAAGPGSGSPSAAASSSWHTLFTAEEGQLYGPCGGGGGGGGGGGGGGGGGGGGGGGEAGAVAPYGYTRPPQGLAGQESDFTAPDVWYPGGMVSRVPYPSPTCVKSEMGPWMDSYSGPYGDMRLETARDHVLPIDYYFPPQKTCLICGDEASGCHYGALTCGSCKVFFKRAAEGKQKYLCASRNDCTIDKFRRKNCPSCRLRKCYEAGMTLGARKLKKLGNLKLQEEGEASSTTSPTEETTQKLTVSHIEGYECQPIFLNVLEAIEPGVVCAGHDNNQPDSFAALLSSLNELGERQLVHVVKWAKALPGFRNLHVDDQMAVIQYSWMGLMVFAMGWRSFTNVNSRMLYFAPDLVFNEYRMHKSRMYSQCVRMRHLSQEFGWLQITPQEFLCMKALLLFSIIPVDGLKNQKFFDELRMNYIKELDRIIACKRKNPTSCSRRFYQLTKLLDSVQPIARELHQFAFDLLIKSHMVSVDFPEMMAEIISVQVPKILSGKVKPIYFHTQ
Method: LNCaP cells were preincubated with EPI-002 (35 μM), SINT1 (20 μM), or DMSO (vehicle control) for 1 h before treatment for 6 h with 50 ng/ml IL-6. Whole cell lysates were prepared from harvested cells in modified radioimmune precipitation assay buffer. Cell lysates were precleared with 2 μg of normal mouse IgG and 20 μl of Protein A/G PLUS-agarose beads (Santa Cruz Biotechnology) to remove nonspecific bead binding. Total STAT3 was immunoprecipitated with 10 μg of antibody against STAT3 (124H6) or 10 μg of normal mouse IgG as a negative control followed by probing the immunoblot with anti-AR antibody (AR-N20; 1:1000) and anti-STAT3 antibody (124H6; 1:1000) and normalizing to levels of β-actin (1:10,000) as loading controls. The input lanes were loaded with 5 μg of the starting cell lysate. The relative density of AR for each immunoprecipitated sample was quantified by ImageJ software and normalized to levels of STAT3 pulled down.

AR-V567es = target: T2, AR-V567es (Homo sapiens, UniProt P10275); assay: Transcriptional activity of AR splice variant, PB-luciferase in COS-1 cells; format: cell-based; settings: for AR-V567es transcriptional activities (PB-luciferase): COS-1, 20 μM SINT1, 25 μM EPI-002
T2 construct: expressed in transfected cells; host or cells: COS-1
T2 sequence (P10275 with tags, fused parts or gaps limits assumed): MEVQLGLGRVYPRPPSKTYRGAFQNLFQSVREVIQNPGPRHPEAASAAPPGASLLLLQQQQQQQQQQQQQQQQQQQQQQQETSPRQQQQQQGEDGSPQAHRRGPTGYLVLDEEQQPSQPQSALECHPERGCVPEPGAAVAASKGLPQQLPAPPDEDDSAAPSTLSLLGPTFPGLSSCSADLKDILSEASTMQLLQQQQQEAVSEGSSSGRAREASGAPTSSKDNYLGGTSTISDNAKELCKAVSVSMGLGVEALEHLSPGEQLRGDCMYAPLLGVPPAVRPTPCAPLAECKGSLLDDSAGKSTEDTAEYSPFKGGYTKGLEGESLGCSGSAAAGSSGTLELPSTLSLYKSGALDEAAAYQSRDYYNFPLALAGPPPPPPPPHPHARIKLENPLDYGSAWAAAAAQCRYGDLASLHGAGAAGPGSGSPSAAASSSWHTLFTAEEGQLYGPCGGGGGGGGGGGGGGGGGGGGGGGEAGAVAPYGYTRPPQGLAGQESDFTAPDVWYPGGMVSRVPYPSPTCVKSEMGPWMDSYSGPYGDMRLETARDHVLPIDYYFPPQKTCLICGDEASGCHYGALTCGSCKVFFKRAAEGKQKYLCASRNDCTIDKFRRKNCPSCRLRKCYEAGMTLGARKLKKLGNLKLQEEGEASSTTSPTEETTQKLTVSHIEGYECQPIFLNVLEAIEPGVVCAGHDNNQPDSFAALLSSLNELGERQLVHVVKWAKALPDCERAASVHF
Method: […]. Levels of expression of AR variant were determined by Western blotting using 10 μg of total protein extracted from same plates (3 wells per condition) using AR-N20 antibody (1:1000) and goat anti-rabbit HRP-conjugated secondary antibody (Santa Cruz Biotechnology; 1:10,000).

recombinant AR LBD = target: T3, recombinant AR LBD (Rattus norvegicus, UniProt P15207); assay: Fluorescence polarization competition assay (Androgen Receptor Competitor Assay); format: binding; settings: AR LBD 25 nM, 1 nM Fluormone AL Green; SINT1 and EPI-002 tested at 0.5–50 μM
T3 construct: purchased Invitrogen
T3 sequence (P15207 651-882 limits assumed): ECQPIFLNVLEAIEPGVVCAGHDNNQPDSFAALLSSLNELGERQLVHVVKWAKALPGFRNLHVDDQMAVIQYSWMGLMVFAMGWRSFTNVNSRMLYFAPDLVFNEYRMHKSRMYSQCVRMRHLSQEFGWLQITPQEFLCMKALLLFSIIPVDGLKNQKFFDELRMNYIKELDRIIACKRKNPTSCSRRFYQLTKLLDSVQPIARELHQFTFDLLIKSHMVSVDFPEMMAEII
Method: The Androgen Receptor Competitor Assay (Green) kit (Invitrogen) was used. […] The reactions with serial dilutions of test compounds were completed in 40-μl aliquots in triplicates. Displacement of Fluormone AL Green from AR LBD by the test compounds was measured by the change in fluorescence polarization using Infinite® M1000 (Tecan) with excitation at 470 nm and emission at 535 nm.
To determine whether the mechanism of action of SINT1 to inhibit androgen-induced AR transcriptional activity was mediated by binding to AR LBD, a fluorescence polarization competition assay was used. This assay uses recombinant AR LBD to reveal whether a test compound competes for ligand binding of Fluoromone that binds to this domain.

| Compound | interaction between AR and STAT3 [1] | AR-V567es transcriptional activities (PB-luciferase) (AR-V567es) | competition with Fluoromone for binding to AR LBD (recombinant AR LBD) | levels of AR-V567es protein (AR-V567es; COS-1, Western blot) |
| --- | --- | --- | --- | --- |
| CC(C)(c1ccc(OC[C@H](O)CO)cc1)c1ccc(OC[C@H](O)CCl)cc1 [EPI-002, reference compound] | inhibited interaction | significantly inhibited | did not compete |  |
| CCC(=O)NC(CC(C)C(Cl)(Cl)Cl)C(=O)N1C(=O)C=C(OC)C1CC(C)C(Cl)Cl (stereo not shown) [SINT1, Sintokamide A] | did not | significantly inhibited | did not compete | not decreased |
